System: hepatocytes
Test: Seq-Well scRNA-Seq of hepatocytes after APAP overdose (signature scores, DEG vs untreated)
Type: in vivo, mouse
Conditions: A96 vs untreated (UT)

CC(=O)Nc1ccc(O)cc1 [APAP, acetaminophen]
Herpud1 avg_logFC: 0.3333 | Herpud1 pct.1: 0.9 | Hhex avg_logFC: 0.3209 | Hhex pct.1: 0.543 | Hmgcl avg_logFC: 0.353 | Hmgcl pct.1: 0.871 | Hmgcs1 avg_logFC: 0.2967 | Hmgcs1 pct.1: 0.858 | Hmgcs2 avg_logFC: 0.4234 | Hmgcs2 pct.1: 0.996 | Hnf4a avg_logFC: 0.2824 | Hnf4a pct.1: 0.858 | Hpgd avg_logFC: 0.3398 | Hpgd pct.1: 0.588 | Hpx avg_logFC: −0.264 | Hpx pct.1: 0.998 | Hrg avg_logFC: 0.4095 | Hrg pct.1: 0.923 | Hsd3b5 avg_logFC: −0.7981 | Hsd3b5 pct.1: 0.25 | Hsd17b7 avg_logFC: 0.3056 | Hsd17b7 pct.1: 0.56 | Hsd17b10 avg_logFC: 0.3092 | Hsd17b10 pct.1: 0.841 | Hspa8 avg_logFC: 0.4257 | Hspa8 pct.1: 0.905 | Igfbp4 avg_logFC: 0.4189 | Igfbp4 pct.1: 0.964 | Ildr2 avg_logFC: 0.2509 | Ildr2 pct.1: 0.356 | Insig2 avg_logFC: 0.3594 | Insig2 pct.1: 0.928 | Iqgap2 avg_logFC: 0.2645 | Iqgap2 pct.1: 0.799 | Kif1b avg_logFC: 0.3909 | Kif1b pct.1: 0.686 | Lcat avg_logFC: 0.3294 | Lcat pct.1: 0.886 | Lifr avg_logFC: −0.4875 | Lifr pct.1: 0.556 | Lipa avg_logFC: 0.4376 | Lipa pct.1: 0.791 | Lpgat1 avg_logFC: 0.275 | Lpgat1 pct.1: 0.671 | Lpin2 avg_logFC: 0.2841 | Lpin2 pct.1: 0.781 | Lrrc58 avg_logFC: 0.2641 | Lrrc58 pct.1: 0.543 | Man2a1 avg_logFC: 0.3324 | Man2a1 pct.1: 0.737 | Maob avg_logFC: 0.2722 | Maob pct.1: 0.708 | Mat1a avg_logFC: 0.9328 | Mat1a pct.1: 1 | Mettl7b avg_logFC: 0.3784 | Mettl7b pct.1: 0.949 | Mfsd2a avg_logFC: 0.3802 | Mfsd2a pct.1: 0.41 | Mia3 avg_logFC: 0.3563 | Mia3 pct.1: 0.81 | Mt1 avg_logFC: 0.638 | Mt1 pct.1: 0.839 | Mt2 avg_logFC: 0.3136 | Mt2 pct.1: 0.548 | Mtdh avg_logFC: 0.321 | Mtdh pct.1: 0.649 | Mttp avg_logFC: 0.2755 | Mttp pct.1: 0.816 | Mup3 avg_logFC: −0.4098 | Mup3 pct.1: 1 | Mup5 avg_logFC: −1.266 | Mup5 pct.1: 0.538 | Mup6 avg_logFC: −2.021 | Mup6 pct.1: 0.778 | Mup7 avg_logFC: −1.145 | Mup7 pct.1: 0.938 | Mup8 avg_logFC: −0.7871 | Mup8 pct.1: 0.067 | Mup9 avg_logFC: −1.818 | Mup9 pct.1: 0.619 | Mup11 avg_logFC: −1.559 | Mup11 pct.1: 0.905 | Mup12 avg_logFC: −0.8331 | Mup12 pct.1: 0.571 | Mup15 avg_logFC: −1.239 | Mup15 pct.1: 0.156 | Mup16 avg_logFC: −1.119 | Mup16 pct.1: 0.567 | Mup17 avg_logFC: −1.889 | Mup17 pct.1: 0.98 | Mup18 avg_logFC: −1.297 | Mup18 pct.1: 0.928 | Mup19 avg_logFC: −1.258 | Mup19 pct.1: 0.973 | Mup21 avg_logFC: −0.94 | Mup21 pct.1: 0.676 | Ncl avg_logFC: 0.2809 | Ncl pct.1: 0.731 | Ndrg2 avg_logFC: 0.3802 | Ndrg2 pct.1: 0.985 | Nfe2l1 avg_logFC: 0.2902 | Nfe2l1 pct.1: 0.508 | Nfe2l2 avg_logFC: 0.3048 | Nfe2l2 pct.1: 0.465 | Nfib avg_logFC: 0.2501 | Nfib pct.1: 0.55 | Nr1i3 avg_logFC: 0.3735 | Nr1i3 pct.1: 0.625 | Nucks1 avg_logFC: 0.2509 | Nucks1 pct.1: 0.621 | Nudt7 avg_logFC: −1.14 | Nudt7 pct.1: 0.602 | Pabpc1 avg_logFC: 0.3693 | Pabpc1 pct.1: 0.766 | Palmd avg_logFC: 0.2584 | Palmd pct.1: 0.43 | Pbld1 avg_logFC: 0.2811 | Pbld1 pct.1: 0.723 | Pcbp2 avg_logFC: 0.3113 | Pcbp2 pct.1: 0.621 | Pdia6 avg_logFC: −0.3359 | Pdia6 pct.1: 0.611 | Pdk1 avg_logFC: 0.2561 | Pdk1 pct.1: 0.438 | Pex11a avg_logFC: 0.462 | Pex11a pct.1: 0.7 | Phyh avg_logFC: 0.2541 | Phyh pct.1: 0.998 | Pigr avg_logFC: 0.2754 | Pigr pct.1: 0.957 | Plin5 avg_logFC: 0.2663 | Plin5 pct.1: 0.532 | Pltp avg_logFC: 0.2919 | Pltp pct.1: 0.237 | Pnp1a8 avg_logFC: 0.3083 | Pnp1a8 pct.1: 0.723 | Ppap2b avg_logFC: 0.2573 | Ppap2b pct.1: 0.593 | Ppara avg_logFC: 0.3055 | Ppara pct.1: 0.614 | Ppib avg_logFC: −0.3519 | Ppib pct.1: 0.696 | Ppm1a avg_logFC: 0.276 | Ppm1a pct.1: 0.571 | Ppp2r5a avg_logFC: 0.3493 | Ppp2r5a pct.1: 0.764 | Prkd3 avg_logFC: 0.305 | Prkd3 pct.1: 0.682 | Prlr avg_logFC: 0.3611 | Prlr pct.1: 0.574 | Pten avg_logFC: 0.3025 | Pten pct.1: 0.64 | Ptms avg_logFC: 0.3243 | Ptms pct.1: 0.806 | Ptp4a2 avg_logFC: 0.259 | Ptp4a2 pct.1: 0.691 | Ptplad1 avg_logFC: 0.2783 | Ptplad1 pct.1: 0.654 | Ptprd avg_logFC: 0.2719 | Ptprd pct.1: 0.582 | Pxmp4 avg_logFC: 0.2794 | Pxmp4 pct.1: 0.687 | Rdh7 avg_logFC: 0.2671 | Rdh7 pct.1: 0.995 | Rdh16 avg_logFC: 0.3716 | Rdh16 pct.1: 0.494 | Reep6 avg_logFC: 0.3193 | Reep6 pct.1: 0.891 | Retsat avg_logFC: 0.5333 | Retsat pct.1: 0.957 | Saa1 avg_logFC: −1.157 | Saa1 pct.1: 0.232 | Sc4mol avg_logFC: 0.2814 | Sc4mol pct.1: 0.781 | Sdhc avg_logFC: 0.3181 | Sdhc pct.1: 0.76 | Sec14l2 avg_logFC: 0.2724 | Sec14l2 pct.1: 0.939 | Secisbp2l avg_logFC: 0.2781 | Secisbp2l pct.1: 0.529 | Selenbp2 avg_logFC: −1.258 | Selenbp2 pct.1: 0.612 | Sepp1 avg_logFC: 0.2839 | Sepp1 pct.1: 1 | Serpina1a avg_logFC: −0.2708 | Serpina1a pct.1: 0.991 | Serpina1b avg_logFC: −0.3845 | Serpina1b pct.1: 0.996 | Serpina1c avg_logFC: −0.3176 | Serpina1c pct.1: 0.998 | Serpina1e avg_logFC: −1.134 | Serpina1e pct.1: 0.977 | Serpina3k avg_logFC: −0.3036 | Serpina3k pct.1: 1 | Serpina12 avg_logFC: −0.5326 | Serpina12 pct.1: 0.226 | Serpinf1 avg_logFC: 0.2572 | Serpinf1 pct.1: 0.934 | Sh3glb1 avg_logFC: 0.2538 | Sh3glb1 pct.1: 0.433 | Slc4a4 avg_logFC: 0.4025 | Slc4a4 pct.1: 0.609
